Data as given in ChEMBL document CHEMBL5236603, “Discovery of mobocertinib, a potent, oral inhibitor of EGFR exon 20 insertion mutations in non-small cell lung cancer” (Bioorg Med Chem Lett, 2023).

Assays:
[1] = AUClast in CD-1 mouse at 10 mg/kg, po by LC/MS/MS analysis; type: ADME, organism-based; parameters: dose 10 mg/kg, route po; conditions: in vivo
[2] = Inhibition of mouse EGFR L858R-T790M mutant stably expressed in mouse BaF3 cells assessed as cell viability incubated for 3 days by Cell Titer-Glo assay; type: cell-based; conditions: BaF3, 72 h
[3] = target: Tyrosine-protein kinase BTK (Homo sapiens) (UniProt Q06187); assay: Inhibition of human BTK at 1 uM by hotspot assay relative to control
Chain of Tyrosine-protein kinase BTK (Homo sapiens) (Q06187 whole entry): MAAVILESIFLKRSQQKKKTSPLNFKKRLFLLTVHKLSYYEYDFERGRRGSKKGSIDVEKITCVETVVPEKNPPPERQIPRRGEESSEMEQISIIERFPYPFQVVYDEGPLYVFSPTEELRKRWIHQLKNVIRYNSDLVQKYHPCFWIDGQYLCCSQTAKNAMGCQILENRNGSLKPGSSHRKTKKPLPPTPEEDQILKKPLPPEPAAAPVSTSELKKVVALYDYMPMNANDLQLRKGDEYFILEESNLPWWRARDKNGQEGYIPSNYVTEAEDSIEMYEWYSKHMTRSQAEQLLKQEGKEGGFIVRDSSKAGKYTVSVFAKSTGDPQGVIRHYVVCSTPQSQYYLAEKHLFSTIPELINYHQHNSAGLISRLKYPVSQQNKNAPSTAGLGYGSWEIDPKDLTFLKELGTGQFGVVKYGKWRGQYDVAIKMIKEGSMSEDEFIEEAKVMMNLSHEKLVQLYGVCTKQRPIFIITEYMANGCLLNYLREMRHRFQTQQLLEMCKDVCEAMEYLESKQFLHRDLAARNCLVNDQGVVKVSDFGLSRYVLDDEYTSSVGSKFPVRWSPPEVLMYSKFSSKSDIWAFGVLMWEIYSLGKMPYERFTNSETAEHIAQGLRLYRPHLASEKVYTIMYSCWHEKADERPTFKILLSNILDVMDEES

[4] = Inhibition of mouse EGFR del-T790M mutant stably expressed in mouse BaF3 cells assessed as cell viability incubated for 3 days by Cell Titer-Glo assay; type: cell-based; conditions: BaF3, 72 h
[5] = Cmax in CD-1 rat at 10 mg/kg, po by LC/MS/MS analysis; type: ADME, organism-based; parameters: dose 10 mg/kg, route po; conditions: in vivo
[6] = target: T1, Tyrosine-protein kinase TXK (Homo sapiens) (UniProt P42681); assay: Inhibition of human TXK at 1 uM by hotspot assay relative to control
T1 sequence (whole entry): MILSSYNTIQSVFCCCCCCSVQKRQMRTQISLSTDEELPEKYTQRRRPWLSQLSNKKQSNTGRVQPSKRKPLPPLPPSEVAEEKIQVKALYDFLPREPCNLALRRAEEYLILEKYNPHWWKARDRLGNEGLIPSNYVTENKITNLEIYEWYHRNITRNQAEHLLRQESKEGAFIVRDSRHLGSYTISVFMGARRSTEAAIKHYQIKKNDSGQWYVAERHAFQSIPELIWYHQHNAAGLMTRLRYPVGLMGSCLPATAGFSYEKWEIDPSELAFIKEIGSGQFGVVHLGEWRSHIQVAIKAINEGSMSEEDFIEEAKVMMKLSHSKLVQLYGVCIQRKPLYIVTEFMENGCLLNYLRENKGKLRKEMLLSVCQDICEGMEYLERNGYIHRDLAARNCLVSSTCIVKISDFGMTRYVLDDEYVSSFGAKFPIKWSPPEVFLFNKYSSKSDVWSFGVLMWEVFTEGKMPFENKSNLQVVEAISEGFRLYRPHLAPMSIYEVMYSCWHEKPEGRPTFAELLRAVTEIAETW

[7] = target: T2, Epidermal growth factor receptor (Homo sapiens, UniProt P00533); assay: Inhibition of human EGFR at 1 uM by hotspot assay relative to control
T2 sequence (P00533 whole entry): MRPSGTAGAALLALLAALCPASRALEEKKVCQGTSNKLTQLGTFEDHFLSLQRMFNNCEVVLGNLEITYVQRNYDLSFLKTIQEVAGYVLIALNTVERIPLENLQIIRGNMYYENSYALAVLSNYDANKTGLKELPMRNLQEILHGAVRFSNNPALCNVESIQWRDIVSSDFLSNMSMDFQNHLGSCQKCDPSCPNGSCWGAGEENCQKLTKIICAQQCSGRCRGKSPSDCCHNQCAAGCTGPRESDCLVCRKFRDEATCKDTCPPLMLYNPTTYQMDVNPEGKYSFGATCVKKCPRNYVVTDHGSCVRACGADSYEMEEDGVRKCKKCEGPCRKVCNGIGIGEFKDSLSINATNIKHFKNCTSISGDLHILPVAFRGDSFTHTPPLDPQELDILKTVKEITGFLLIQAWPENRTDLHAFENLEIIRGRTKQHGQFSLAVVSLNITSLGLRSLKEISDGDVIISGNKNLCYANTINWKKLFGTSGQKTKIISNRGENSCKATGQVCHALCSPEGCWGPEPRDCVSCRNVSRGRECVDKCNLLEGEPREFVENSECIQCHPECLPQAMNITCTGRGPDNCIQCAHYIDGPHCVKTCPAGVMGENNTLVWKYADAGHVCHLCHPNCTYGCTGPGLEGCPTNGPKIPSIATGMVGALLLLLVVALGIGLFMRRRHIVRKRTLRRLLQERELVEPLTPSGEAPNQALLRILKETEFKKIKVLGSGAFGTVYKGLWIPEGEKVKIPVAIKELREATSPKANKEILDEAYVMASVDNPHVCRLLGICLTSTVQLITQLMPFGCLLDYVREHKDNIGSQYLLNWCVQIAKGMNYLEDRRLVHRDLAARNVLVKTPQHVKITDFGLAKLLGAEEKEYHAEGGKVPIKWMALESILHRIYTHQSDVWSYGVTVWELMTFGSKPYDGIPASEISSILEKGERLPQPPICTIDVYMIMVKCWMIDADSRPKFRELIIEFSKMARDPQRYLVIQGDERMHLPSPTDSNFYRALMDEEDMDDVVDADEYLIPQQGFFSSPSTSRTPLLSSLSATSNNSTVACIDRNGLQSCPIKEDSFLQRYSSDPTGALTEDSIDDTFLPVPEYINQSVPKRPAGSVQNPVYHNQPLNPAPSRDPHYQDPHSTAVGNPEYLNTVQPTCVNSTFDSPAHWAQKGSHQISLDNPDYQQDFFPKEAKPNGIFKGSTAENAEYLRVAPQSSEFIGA

[8] = target: Epidermal growth factor receptor (Homo sapiens, UniProt P04626+P00533+Q15303+P21860, L858R); assay: Inhibition of mouse EGFR L858R mutant stably expressed in mouse BaF3 cells assessed as cell viability incubated for 3 days by Cell Titer-Glo assay; type: cell-based
[9] = target: T2, Epidermal growth factor receptor; assay: Inhibition of […]-induced EGFR phosphorylation in human A549 cells pretreated for 2 hrs followed by EGF stimulation by immune assay; type: cell-based
[10] = Inhibition of mouse EGFR S768_D770dup D770_N771insSVD (SVD) mutant stably expressed in mouse BaF3 cells assessed as cell viability incubated for 3 days by Cell Titer-Glo assay; type: cell-based; conditions: BaF3, 72 h
[11] = Toxicity in SCID mouse assessed as signs of clinical toxicity at 100 mg/kg, po administered for 7 consecutive days; type: organism-based; conditions: in vivo
[12] = Inhibition of mouse EGFR D770_N771insNPG mutant stably expressed in mouse BaF3 cells assessed as cell viability incubated for 3 days by Cell Titer-Glo assay; type: cell-based; conditions: BaF3, 72 h
[13] = test system: BaF3; assay: In vivo antitumor activity against mouse BaF3 cells expressing EGFR exon 20 insertion (ex20ins) ASV implanted in SCID mouse assessed as tumor growth inhibition at 100 mg/kg, po administered for 7 consecutive days; type: functional; conditions: BaF3, 168 h, time 7 day, read-out: TGI
[14] = Inhibition of mouse EGFR N771_H773dup H773_V774insNPH […] (NPH) mutant stably expressed in mouse BaF3 cells assessed as cell viability incubated for 3 days by Cell Titer-Glo assay; type: cell-based; conditions: BaF3, 72 h
[15] = test system: Tyrosine-protein kinase BTK (Homo sapiens), Q06187 [E41K]; assay: Inhibition of human BTK E41K mutant at 1 uM by hotspot assay relative to control
Chain of Tyrosine-protein kinase BTK (Homo sapiens), Q06187 [E41K] (Q06187 whole entry E41K): as the sequence (Q06187 whole entry) above, with E41K counted along it

[16] = target: T3, Tyrosine-protein kinase JAK3 (Homo sapiens) (UniProt P52333); assay: Inhibition of human JAK3 at 1 uM by hotspot assay relative to control
T3 sequence (whole entry): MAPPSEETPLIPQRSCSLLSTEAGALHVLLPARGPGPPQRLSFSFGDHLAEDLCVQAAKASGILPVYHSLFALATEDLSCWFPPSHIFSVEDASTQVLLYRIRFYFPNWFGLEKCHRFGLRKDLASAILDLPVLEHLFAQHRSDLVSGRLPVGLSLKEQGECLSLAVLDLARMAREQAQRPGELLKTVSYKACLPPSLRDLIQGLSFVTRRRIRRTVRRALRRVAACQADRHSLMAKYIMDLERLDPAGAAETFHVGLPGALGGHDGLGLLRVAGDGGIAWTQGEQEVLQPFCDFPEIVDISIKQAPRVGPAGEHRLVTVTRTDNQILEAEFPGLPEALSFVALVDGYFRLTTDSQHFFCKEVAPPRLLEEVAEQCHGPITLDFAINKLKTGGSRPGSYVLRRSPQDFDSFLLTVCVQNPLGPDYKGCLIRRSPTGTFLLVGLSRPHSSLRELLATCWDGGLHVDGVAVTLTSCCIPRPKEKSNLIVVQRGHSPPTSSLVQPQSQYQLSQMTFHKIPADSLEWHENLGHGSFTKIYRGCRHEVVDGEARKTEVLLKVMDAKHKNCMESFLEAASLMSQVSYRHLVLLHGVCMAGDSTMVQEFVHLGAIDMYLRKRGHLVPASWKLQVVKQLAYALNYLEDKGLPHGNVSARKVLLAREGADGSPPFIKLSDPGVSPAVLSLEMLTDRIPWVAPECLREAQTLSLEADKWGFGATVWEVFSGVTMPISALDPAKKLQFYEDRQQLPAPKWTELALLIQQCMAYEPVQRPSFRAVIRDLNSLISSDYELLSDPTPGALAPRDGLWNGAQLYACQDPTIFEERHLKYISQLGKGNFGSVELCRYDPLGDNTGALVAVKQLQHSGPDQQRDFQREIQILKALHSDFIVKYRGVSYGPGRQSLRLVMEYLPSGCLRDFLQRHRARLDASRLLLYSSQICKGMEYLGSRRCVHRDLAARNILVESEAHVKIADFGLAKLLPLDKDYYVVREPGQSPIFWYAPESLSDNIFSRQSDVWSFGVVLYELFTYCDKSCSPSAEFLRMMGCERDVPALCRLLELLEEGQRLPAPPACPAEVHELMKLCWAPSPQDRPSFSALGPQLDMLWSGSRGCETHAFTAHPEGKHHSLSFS

[17] = Inhibition of mouse EGFR common activating deletion mutant stably expressed in mouse BaF3 cells assessed as cell viability incubated for 3 days by Cell Titer-Glo assay; type: cell-based; conditions: BaF3, 72 h
[18] = test system: BaF3; assay: In vivo antitumor activity against mouse BaF3 cells expressing EGFR exon 20 insertion (ex20ins) ASV implanted in SCID mouse assessed as tumor regression at 100 mg/kg, po administered for 7 consecutive days; type: functional; conditions: time 7 day
[19] = test system: BaF3; assay: Anticancer activity against parental mouse BaF3 cells assessed as cell viability incubated for 3 days by Cell Titer-Glo assay; type: functional, cell-based; conditions: BaF3, 72 h

C=CC(=O)Nc1cc(Nc2ncc(C(=O)OC(C)C)c(-c3cn(C)c4ccccc34)n2)c(OC)cc1N(C)CCN(C)C [MOBOCERTINIB]
AUC(0-t) [1]: 341 ng·h/mL
IC50 [2]: 21.3 nM
inhibition [3]: > 81%
IC50 [4]: 6.3 nM
Cmax [5]: 143 ng/mL
inhibition [6]: > 81%
inhibition [7]: > 97%
IC50 [8]: 3.3 nM
IC50 [9]: 31 nM
IC50 [10]: 22.5 nM
Activity [11]: Non-Toxic
IC50 [12]: 4 nM
inhibition in vivo at 100 mg/kg [13]: 89%
IC50 [14]: 18.1 nM
inhibition [15]: > 81%
inhibition [16]: > 81%
IC50 [17]: 2.7 nM
Activity [18]: -98%
IC50 [19]: 3950 nM
